Assay results: patent publication US9840481B2, “Allosteric modulators of nicotinic acetylcholine receptors” (MERCK SHARP & DOHME CORP., priority 2016, dated 2017)
pEC50: −log10 of the molar value. Read-outs that look alike come from different tables or passages of the source.

Target: T1, human α7 nAChR stably expressed in a HEK cell line (with human RIC-3) (Homo sapiens, UniProt P36544)
T1 construct: PrecisION hnAChR α7/RIC-3
Experiment: Automated patch-clamp electrophysiology functional assay (Assay A), IonFlux HT, whole-cell population patch
Assay type: cell-based
Protocol: The α7 nAChR positive allosteric modulator (PAM) activity of the present compounds may be tested using assays known in the art. The α7 nAChR PAMs described herein have activities in an automated patch-clamp electrophysiology functional assay as described in the examples. The assay was performed using the IonFlux HT in a whole-cell, population patch configuration. See Golden et al. Assay Drug Dev. Technol. (2011) 9:608-619. The compounds were assessed for their ability to modulate the function of the human α7 nAChR stably expressed in a HEK cell line both in the presence, and in the absence of the natural α7 agonist acetylcholine. By performing a series of such measurements at different concentrations, the effective concentration of the α7 nAChR PAMs (EC50) was determined. See Spencer et al. Assay Drug Dev. Technol. (2012) 10:313-324.
Direct activation of α7 (agonism), and potentiation of 5 acetylcholine-evoked α7 currents was determined as follows:
Automated Patch-Clamp Electrophysiology Functional Assay (Assay A)
Automated patch-clamp electrophysiology was performed using the IonFlux HT (Fluxion Biosciences Inc., San Francisco, Calif.) in the whole-cell, population patch configuration. Test compounds were assessed for their ability to modulate the function of the α7 nicotinic acetylcholine receptor both in the presence, and in the absence of the natural α7 agonist acetylcholine. A HEK cell line stably expressing both human RIC-3 and human α7 (PrecisION hnAChR α7/RIC-3, Eurofins Pharma, St. Charles, Mo.) was cultured in 175 cm^2 triple-layer tissue culture flasks to no more than 90% confluency in DMEM/F-12 growth media supplemented with 10% heat-inactivated fetal bovine serum, 1% non-essential amino acids, 0.625 μg/mL Puromycin, and 400 μg/mL Geneticin. Immediately prior to assay, cells were detached by first aspirating growth media, rinsing with Dulbecco's phosphate buffered saline, and then adding 10 mL of Accutase (Innovative Cell Technologies, San Diego, Calif.) to the flask and then incubating at 37° C. for 5 minutes. Detached cells were then recovered by the addition of 40 mL of CHO-serum-free media supplemented with 25 mM HEPES, and rocked gently in a 50 mL conical tube for 20 minutes prior to patch-clamp assay. After recovery, cells were pelleted by centrifugation at 1,000 RPM for 1 minute in a compact bench top centrifuge; recovery media was aspirated and cells were resuspended in external recording solution (150 mM NaCl, 5 mM KCl, 2 mM CaCl2, 1 mM MgCl2, 10 mM HEPES, 12 mM dextrose) to a density of 5.0×10^6 cells/mL. The cell suspension was added to the cell inlet wells on an IonFlux HT population patch plate which had previously been rinsed and primed with deionized H2O. Test compounds were serially diluted in DMSO and then resuspended to the final test concentration in external recording solution, with, or without […] acetylcholine added to the external recording solution; test compounds were then transferred to the IonFlux HT population patch plate. Internal recording solution (110 mM TrisPO4, 28 mM TrisBase, 0.1 mM CaCl2, 2 mM MgCl2, 11 mM EGTA, 4 mM MgATP) was added to the internal recording solution inlet wells on the IonFlux HT patch plate previously loaded with cells and test compounds, and the plate loaded into the IonFlux HT instrument. A protocol was executed on the IonFlux HT to trap the cells, break into the cells, and establish the whole-cell recording configuration; cells were voltage-clamped at a holding potential of −60 mV for the duration of the experiment, all experiments were conducted at room temperature, and the IonFlux HT injection pressure was 8 psi for solution applications. Upon establishing the whole-cell configuration, external recording solution was perfused into the recording chambers for 120 seconds and then 40 μM acetylcholine was applied for 1 second and immediately washed off with external recording solution for 60 seconds. […]

[1] = automated patch-clamp electrophysiology functional assay (Assay A), potency class by EC50, read-out: α7 nAChR Potency
[2] = electrophysiology EC50, HEK cells expressing human α7/RIC-3, 40 μM acetylcholine, holding potential −60 mV, room temperature, read-out: α7 nAChR EC50

T1 sequence (P36544 23-502): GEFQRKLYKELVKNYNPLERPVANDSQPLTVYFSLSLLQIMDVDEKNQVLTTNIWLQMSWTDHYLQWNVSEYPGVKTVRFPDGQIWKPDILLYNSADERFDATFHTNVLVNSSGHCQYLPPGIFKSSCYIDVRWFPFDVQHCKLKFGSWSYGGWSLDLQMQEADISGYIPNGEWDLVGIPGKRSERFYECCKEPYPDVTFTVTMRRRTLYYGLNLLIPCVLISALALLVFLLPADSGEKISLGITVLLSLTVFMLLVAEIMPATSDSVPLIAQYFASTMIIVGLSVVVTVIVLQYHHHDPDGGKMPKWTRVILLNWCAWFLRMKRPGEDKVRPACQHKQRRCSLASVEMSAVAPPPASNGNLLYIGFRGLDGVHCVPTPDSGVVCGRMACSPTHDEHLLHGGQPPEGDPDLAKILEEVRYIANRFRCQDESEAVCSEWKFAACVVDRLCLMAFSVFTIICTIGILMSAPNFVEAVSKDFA

SMILES	pEC50 [1]	pEC50 [2]
NS(=O)(=O)c1ccc(C2C(c3nc(-c4ccccc4)no3)C23CCCC3)cc1 (single isomer, unassigned) [Example M3]	≥ 7.00	7.08
NS(=O)(=O)c1ccc([C@@H]2C[C@H]2c2noc(N3CCCCC3)n2)cc1 [Example 37, 4-{(1R,2R)-2-[5-(Piperidin-1-yl)-1,2,4-oxadiazol-3-yl]cyclopropyl}benzenesulfonamide]	6.30 to 7.00	6.62
Cc1cccc(-c2noc([C@@H]3C[C@H]3c3ccc(S(N)(=O)=O)cc3)n2)c1 [Example C18]	6.30 to 7.00	
CC1(C)[C@H](c2ccc(S(N)(=O)=O)cc2)[C@H]1c1ncc(C2CCCC2)s1 [Example J9]	5.30 to 6.30	
CC1(C)[C@@H](c2ccc(S(N)(=O)=O)cc2)[C@@H]1c1nc(C2CCCCC2O)no1 (stereo partly drawn) [Example D32]	5.30 to 6.30	
CC(C)c1noc([C@@H]2[C@@H](c3ccc(S(N)(=O)=O)cc3)C2(F)F)n1 [Example 7, 4-{(1S,3S)-2,2-Difluoro-3-[3-(propan-2-yl)-1,2,4-oxadiazol-5-yl]cyclopropyl}benzenesulfonamide]	5.30 to 6.30	6.04
CC(C)(C)c1cnc([C@@H]2C[C@H]2c2ccc(S(N)(=O)=O)cc2)o1 [Example K4]	5.30 to 6.30	
NS(=O)(=O)c1ccc([C@@H]2C[C@H]2c2nc(-c3cc(F)ccc3F)no2)cc1 [Example C16]	6.30 to 7.00	6.80
CC1(C)[C@@H](c2ccc(S(N)(=O)=O)cc2)[C@@H]1c1noc(-c2c[nH]c(C3CC3)n2)n1 [Example I8]	5.30 to 6.30	5.36
CC1(C)[C@H](c2ccc(S(N)(=O)=O)cc2)[C@H]1c1cn(-c2cccc(F)c2)nn1 [Example L5]	5.30 to 6.30	6.11
NS(=O)(=O)c1ccc([C@@H]2[C@@H](c3nc(C4CCCC4)no3)C2(F)F)cc1 [Example B19]	6.30 to 7.00	6.43
CC1(C)[C@@H](c2ccc(S(N)(=O)=O)cc2)[C@@H]1c1nc(-c2ccccc2F)co1 [Example K1]	6.30 to 7.00	
CC(C)(C)c1coc([C@@H]2[C@@H](c3ccc(S(N)(=O)=O)cc3)C2(C)C)n1 [Example J4]	5.30 to 6.30	5.49
NS(=O)(=O)c1ccc([C@@H]2C[C@H]2c2nc(-c3ccc(F)cc3F)no2)cc1 [Example C13]	6.30 to 7.00	6.80
Cc1cccc(F)c1-c1nc([C@H]2[C@H](c3ccc(S(N)(=O)=O)cc3)C2(C)C)no1 [Example H6]	6.30 to 7.00	
CC1(C)[C@@H](c2ccc(S(N)(=O)=O)cc2)[C@@H]1c1noc(C2CCC(O)CC2)n1 (stereo partly drawn) [Example I29]	4.30 to 5.30	5.17
CC1(C)C(c2nc(-c3ccccc3)no2)C1c1ccc(S(N)(=O)=O)cc1F (single isomer, unassigned) [Example M7]	5.30 to 6.30	
CC1(C)[C@H](c2ccc(S(N)(=O)=O)cc2)[C@H]1c1noc(-c2ccccc2)n1 [Example L17]	6.30 to 7.00	
NS(=O)(=O)c1ccc([C@H]2C[C@@H]2c2cnc(-c3ccccc3)o2)cc1 [Example L2]	5.30 to 6.30	5.32
CC1(C)[C@@H](c2ccc(S(N)(=O)=O)cc2)[C@@H]1c1nnc(-c2ccccc2)s1 [Example G7]	5.30 to 6.30	5.74
CC(C)c1noc([C@H]2[C@H](c3ccc(S(N)(=O)=O)cc3)C2(C)C)n1 [Example D5]	6.30 to 7.00	6.38
NS(=O)(=O)c1ccc([C@@H]2[C@@H](c3ncc(C4CCCC4)o3)C2(F)F)cc1 [Example J11]	5.30 to 6.30	6.14

SMILES	pEC50 [1]	pEC50 [2]
CC1(C)C(c2ccc(S(N)(=O)=O)cc2)C1c1noc(C2CC3CN(C4CCCC4)C(=O)C3C2)n1 (stereo not drawn) [Example I24]	5.30 to 6.30	5.36
Cc1ncccc1-c1noc([C@H]2C[C@@H]2c2ccc(S(N)(=O)=O)cc2)n1 [Example B6]	4.30 to 5.30	5.11
CCc1coc([C@H]2[C@H](c3ccc(S(N)(=O)=O)cc3)C2(C)C)n1 [Example K8]	5.30 to 6.30	6.27
CC1(C)[C@@H](c2ccc(S(N)(=O)=O)cc2)[C@@H]1c1noc(Cn2c(=O)oc3ccc(Cl)cc32)n1 [Example I5]	5.30 to 6.30	
NS(=O)(=O)c1ccc([C@H]2C[C@@H]2c2nc(C3CCCCC3)no2)cc1 [Example B4]	5.30 to 6.30	
CC(C)c1noc([C@H]2[C@H](c3ccc(S(N)(=O)=O)cc3)C2(F)F)n1 [Example D1]	6.30 to 7.00	6.92
CC1(C)[C@@H](c2ccc(S(N)(=O)=O)cc2)[C@@H]1c1noc(-c2cnc(SCC(F)(F)F)o2)n1 [Example I18]	5.30 to 6.30	5.89
NS(=O)(=O)c1ccc([C@@H]2C[C@H]2c2nsc(C3CCCCC3)n2)cc1 [Example L11]	6.30 to 7.00	
Cn1cc([C@H]2[C@H](c3ccc(S(N)(=O)=O)cc3)C2(C)C)nc1-c1cccc(F)c1 [Example 35, 4-{(1S,3S)-3-[2-(3-Fluorophenyl)-1-methyl-1H-imidazol-4-yl]-2,2-dimethylcyclopropyl}benzenesulfonamide]	5.30 to 6.30	5.36
CC1(C)[C@H](c2ccc(S(N)(=O)=O)cc2)[C@H]1c1nc(-c2cccc(F)c2)no1 [Example A10]	5.30 to 6.30	5.96
CC1(C)[C@@H](c2ccc(S(N)(=O)=O)cc2)[C@@H]1c1noc(CCC2CC2)n1 [Example 2, 4-((1S,3S)-3-(5-(2-Cyclopropylethyl)-1,2,4-oxadiazol-3-yl)-2,2-dimethylcyclopropyl)benzenesulfonamide]	6.30 to 7.00	
CC1(C)[C@@H](c2ccc(S(N)(=O)=O)cc2)[C@@H]1c1nnc(-c2ccccc2C(F)(F)F)o1 [Example G4]	5.30 to 6.30	
NS(=O)(=O)c1ccc(C2CC2c2coc(-c3ccccc3)n2)cc1 (stereo not drawn) [Example 24, 4-[trans-2-(2-Phenyl-1,3-oxazol-4-yl)cyclopropyl]benzenesulfonamide]	5.30 to 6.30	5.62
CC1(C)[C@@H](c2ccc(S(N)(=O)=O)cc2)[C@@H]1c1nnc(-c2cc(F)ccc2C(F)(F)F)o1 [Example G6]	5.30 to 6.30	5.96
COc1ccc(Cl)cc1-c1noc([C@@H]2[C@@H](c3ccc(S(N)(=O)=O)cc3)C2(C)C)n1 [Example A1]	5.30 to 6.30	5.54
CC(C)Oc1ccc(Cl)cc1-c1noc([C@@H]2[C@@H](c3ccc(S(N)(=O)=O)cc3)C2(C)C)n1 [Example A4]	5.30 to 6.30	5.32
NS(=O)(=O)c1ccc([C@@H]2C[C@H]2c2nc(-c3cnccc3C(F)(F)F)no2)cc1 [Example D25]	5.30 to 6.30	
NS(=O)(=O)c1ccc([C@@H]2C[C@H]2c2nc(-c3cc(F)ccc3C(F)(F)F)no2)cc1 [Example C8]	6.30 to 7.00	6.30
NS(=O)(=O)c1ccc([C@@H]2C[C@H]2c2ncc(-c3ccccc3)o2)cc1 [Example 8, 4-[(1R,2R)-2-(5-Phenyl-1,3-oxazol-2-yl)cyclopropyl]benzenesulfonamide]	6.30 to 7.00	6.30
CC1(C)[C@@H](c2ccc(S(N)(=O)=O)cc2)[C@@H]1c1nc(-c2cncc(C(F)(F)F)c2)no1 [Example D17]	5.30 to 6.30	5.64
CC(C)c1cnc([C@H]2[C@H](c3ccc(S(N)(=O)=O)cc3)C2(C)C)s1 [Example 21, 4-{(1S,3S)-2,2-Dimethyl-3-[5-(propan-2-yl)-1,3-thiazol-2-yl]cyclopropyl}benzenesulfonamide]	6.30 to 7.00	6.41
